The subject of experiment [1] is Tel23 (DNA, G4) TAGGGTTAGGGTTAGGGTTAGGG
In words: absorbance titration. The note with it: K+ (KCl 0.1 M stated for G4 melting), Li+; LiCac 2.5 mM, pH 7.0; no signal change; highest concentration not stated.

The test system is the same in experiment [2]. Description: UV melting at 295 nm. The note with it: K+ 100 mM (KCl), Li+, LiCac 2.5 mM, pH 7.0, 5.51 µM G4, no stabilizing effect.

Regarding `c1cc[n+]2c(c1)-c1cccc[n+]1CC2`, the binding entry in experiment [1] and in experiment [2] (5.47 µM compound) was “no” in each case.
`C[n+]1ccc(-c2cc[n+](C)cc2)cc1`: the binding result in experiment [1] and in experiment [2] (6.01 µM compound) was “no” in each case.

Values taken from PMC7967551 (2021).
